*1 amine or outer side, *2 acyl side, *3 side chain or, on linkers, in order; H or OH if unused. Where a SMILES comes first, the peptide text is derived from it. [ ]: non-standard residue; d: D form. The star is where a group is joined. Gly(1-adamantyl) = N[C@H](C(=O)O)C12CC3CC(CC(C3)C1)C2; Asp(3,3-(CH2)4) = N[C@H](C(=O)O)C1(C(=O)O)CCCC1; tBuAla = CC(C)(C)C[C@H](N)C(=O)O; Tle = CC(C)(C)[C@H](N)C(=O)O; NH(3-pentyl) = CCC(CC)N*; Pyrrolidide = C1CCN(*)C1; X2 = CC(C)(C)CC(C)(C)N*; CO = O=C([*:1])[*:2]; X1 = CCCC1(N*)CCCC1; X4 = CCCC(CCC)N*
System: Herpes Simplex Virus (HSV-2)
Format: cell-based
Conditions: 29 h
Description: BHK-21/C13 cells (ATCC CCL 10) are incubated for two days in 150 cm^2 T-flasks (1.5 x 10^6 cells/flask) with alpha-MEM medium (Gibco Canada Inc., Burlington, Ontario, Canada) supplemented with 8% (v/v) fetal bovine serum (FBS, Gibco Canada Inc.). The cells are trypsinized and then transferred to fresh media in a 24 well plate to give 2.5 x 10^5 cells in 750 µL of media per well. The cells are incubated at 37° for a period of 6 h to allow them to adhere to the plate. Thereafter, the cells are washed once with 500 µL of alpha-MEM supplemented with 0.5% (v/v) FBS and then incubated with 750 µL of the same media (low serum) for 3 days. After this period of serum starvation, the low serum medium is removed and the cells are incubated in 500 µL of BBMT for 2 to 3 hours. {BBMT medium is described by P. Brazeau et al., Proc. Natl. Acad. Sci. USA, 79, 7909 (1982).} Thereafter, the cells are infected with HSV-2 (multiplicity of infection = 0.02 PFU/cell) in 100 µL of BBMT medium. (Note: The HSV-2 used was strain HG-52, see Y. Langelier and G. Buttin, J. Gen. Virol., 57, 21 (1981); the virus was stored at -80°.) Following 1 h of virus adsorption at 37°, the media is removed and the cells are washed with BBMT (3 X 250 µL). The cells in each well are incubated with or without (control) appropriate concentrations of the test agent dissolved in 200 µL of BBMT medium. After 29 h of incubation at 37°, the infected cells are harvested by first freezing the plate at -80°, followed by thawing. The cells in each well are scraped off the surface of the well with the help of the melting ice fragments. After complete thawing, the cell suspensions are collected and each well is rinsed with 150 µL of BBMT medium. The viral sample (suspension plus washing) is sonicated gently for 4 min at 4°. Cell debris are removed by centrifugation (1000 times gravity for 10 minutes at 4°). The supernatant is collected and stored at -80° until determination of viral titer.
Viral titration was performed by a modification of the colorimetric assay method of M. Langlois et al., Journal of Biological Standardization, 14, 201 (1986).
More specifically, in a similar manner as described above, BHK-21/C13 cells are trypsinized and transferred to fresh media in a 96 well microtiter plate to give 20,000 cells in 100 µL of media per well. The cells in the prepared plate are incubated at 37° for, 2 h. During that time, the viral sample is thawed and sonicated gently for 15 seconds, and log dilutions of the sample are prepared (1/5 sequential: 50 µL of the sample plus 200 µL of BBMT medium, sequential dilutions being done with a multichannel pipette.
On completion of the above 2 hour incubation of the BHK-21/C13 cells, the media is replaced with alpha-MEM medium supplemented with 3% (v/v) FBS. The cells are now ready to be infected with the various sample dilutions of virus. Aliquots (50 µL) of the various dilutions are transferred into the appropriate wells of the plate. The resulting infected cells are incubated for 2 days at 37°. Then 50 µL of a 0.15% (v/v) solution of neutral red dye in Hank's Balanced Salt Solution (pH 7.3, Gibco Canada Inc.) is added to each well. The prepared plate is incubated for 45 min at 37°. Medium from each well is then aspirated and the cells are washed once with 200 µL of Hank's Balanced Salt Solution. After the wash, the dye is released from the cells by the addition of 100 µL of a 1:1 mixture of 0.1 M Sorensen's citrate buffer (pH 4.2) and ethanol. {Sorensen's citrate buffer is prepared as follows: Firstly, a 0.1 M disodium citrate solution is prepared by dissolving citric acid monohydrate (21 g) in 1 N aqueous NaOH (200 mL) and adding sufficient filtered H2O to make 1 L. Secondly, the 0.1 M disodium citrate solution (61.2 mL) is mixed with 0.1 N aqueous HCl (38.8 mL) and the pH of the resulting solution is adjusted to 4.2 if necessary.} The mixture in the wells is subjected to a gentle vortex action to ensure proper mixing.

Q: Which EC50 does the source give for CCCC1(NC(=O)N[C@H](C(=O)N[C@@H](CC(=O)N2CCCC2)C(=O)N[C@H](C(=O)N[C@@H](CC(C)(C)C)C(=O)OCC)C2(C(=O)O)CCCC2)C(C)(C)C)CCCC1 [(1-propylcyclopentyl)-NHC(O)-Tbg-Asp(pyrrolidino)-Asp(cyPn)-γMeLeu-OEt] ({X1-CO}-[Tle]D(Pyrrolidide)[Asp(3,3-(CH2)4)][tBuAla]-OEt) here?
A: 45 µM

Q: CCCC1(NC(=O)N[C@H](C(=O)N[C@@H](CC(=O)N2CCCC2)C(=O)N[C@H](C(=O)N[C@@H](CC(C)(C)C)C(=O)O)C2(C(=O)O)CCCC2)C(C)(C)C)CCCC1 [(1-propylcyclopentyl)NHCO-Tbg-Asp-(pyrrolidino)-Asp(cyPn)-γMeLeu-OH] ({X1-CO}-[Tle]D(Pyrrolidide)[Asp(3,3-(CH2)4)][tBuAla]-OH) was tested. Which EC50 did it give?
A: 190 µM

Q: How did the EC50 turn out when CCC(CC)NC(=O)N[C@H](C(=O)N[C@@H](CC(=O)N1CCCC1)C(=O)N[C@H](C(=O)N[C@@H](CC(C)(C)C)C(=O)O)C1(C(=O)O)CCCC1)C12CC3CC(CC(C3)C1)C2 [Et2CHNHC(O)-NH-(S)-CH(adamantyl)-C(O)-Asp(pyrrolidino)-Asp(cyPn)-γMeLeu-OH] ({NH(3-pentyl)-CO}-[Gly(1-adamantyl)]D(Pyrrolidide)[Asp(3,3-(CH2)4)][tBuAla]-OH) was run?
A: 170 µM

Q: Which EC50 does the source give for CCC(CC)NC(=O)N[C@H](C(=O)N[C@@H](CC(=O)N1CCCC1)C(=O)N[C@H](C(=O)N[C@H](CO)CC(C)(C)C)C1(C(=O)O)CCCC1)C12CC3CC(CC(C3)C1)C2 [Et2CHNHC(O)-NH-(S)-CH(adamantyl)-C(O)-Asp(pyrrolidino)-Asp(cyPn)-γMeLeucinol] here?
A: 170 µM

Q: For CCC(CC)NC(=O)N[C@H](C(=O)N[C@@H](CC(=O)N1CCCC1)C(=O)N[C@H](C(=O)NCCC(C)(C)C)C1(C(=O)O)CCCC1)C(C)(C)C [Et2CHNHC(O)-Tbg-Asp(pyrrolidino)-Asp(cyPn)-NHCH2CH2CMe3], which EC50 is on record?
A: 350 µM

Q: Which EC50 does the source give for CCC(CC)NC(=O)N[C@H](C(=O)N[C@@H](CC(=O)N1CCCC1)C(=O)N[C@H](C(=O)NCC(C)(C)C)C1(C(=O)O)CCCC1)C(C)(C)C [Et2CHNHC(O)-Tbg-Asp(pyrrolidino)-Asp(cyPn)-NHCH2CMe3] here?
A: 270 µM

Q: For CCC(CC)NC(=O)N[C@H](C(=O)N[C@@H](CC(=O)N1CCCC1)C(=O)N[C@H](C(=O)N[C@@H](CC(C)(C)C)C(=O)O)C1(C(=O)O)CCCC1)C(C)(C)C [Et2CHNHC(O)-Tbg-Asp(pyrrolidino)-Asp(cyPn)-γMeLeu-OH] ({NH(3-pentyl)-CO}-[Tle]D(Pyrrolidide)[Asp(3,3-(CH2)4)][tBuAla]-OH), which EC50 is on record?
A: 180 µM

Q: CCC(CC)NC(=O)N[C@H](C(=O)N[C@@H](CC(=O)N1CCCC1)C(=O)N[C@H](C(=O)N[C@@H](CC(C)C)C(=O)O)[C@H](C(=O)O)C(C)C)C(C)(C)C [Et2CHNHC(O)-Tbg-Asp(pyrrolidino)-Asp{(R)-iPr}-Leu-OH] was tested. Which EC50 did it give?
A: 300 µM

Q: With CCC(CC)NC(=O)N[C@H](C(=O)N[C@@H](CC(=O)N1CCCC1)C(=O)N[C@H](C(=O)N[C@@H](CC(C)(C)C)C(=O)O)[C@H](C(=O)O)C(C)C)C(C)(C)C [Et2CHNHC(O)-Tbg-Asp(pyrrolidino)-Asp{(R)-iPr}-γMeLeu-OH] as the compound, how does the EC50 read?
A: 190 µM

Q: CCC(CC)NC(=O)N[C@H](C(=O)N[C@@H](CC(=O)N1CCCC1)C(=O)N[C@H](C(=O)N[C@H](CO)CC(C)(C)C)[C@H](C(=O)O)C(C)C)C(C)(C)C [Et2CHNHC(O)-Tbg-Asp(pyrrolidino)-Asp{(R)-iPr}-γMeLeucinol] was tested. Which EC50 did it give?
A: 140 µM

Q: For CCC(CC)NC(=O)N[C@H](C(=O)N[C@@H](CC(=O)N1CCCC1)C(=O)N[C@H](C(=O)N[C@H](CO)CC(C)(C)C)C1(C(=O)O)CCCC1)C(C)(C)C [Et2CHNHCO-Tbg-Asp(pyrrolidino)-Asp(cyPn)-γMeLeucinol], which EC50 is on record?
A: 170 µM

Q: How did the EC50 turn out when CCCC(CC)(CCC)NC(=O)N[C@H](C(=O)N[C@@H](CC(=O)N1CCCC1)C(=O)N[C@H](C(=O)N[C@H](CC)C(C)(C)C)C1(C(=O)O)CCCC1)C(C)(C)C [EtPr2CNHC(O)-Tbg-Asp(pyrrolidino)-Asp(cyPn)NH-(R)-CH(Et)CMe3] was run?
A: 7 µM

Q: Which EC50 does the source give for CC(C)NC(=O)N[C@H](C(=O)N[C@@H](CC(=O)N1CCCC1)C(=O)N[C@H](C(=O)N[C@H](CO)CC(C)(C)C)C1(C(=O)O)CCCC1)C(C)(C)C [Me2CHNHC(O)-Tbg-Asp(pyrrolidino)-Asp(cyPn)-γMeLeucinol] here?
A: 700 µM

Q: For CCCC(C)(CCC)NC(=O)N[C@H](C(=O)N[C@@H](CC(=O)N1CCCC1)C(=O)N[C@H](C(=O)NCC(C)(C)C)C1(C(=O)O)CCCC1)C(C)(C)C [MePr2CNHC(O)-Tbg-Asp(pyrrolidino)-Asp(cyPn)-NHCH2CMe3], which EC50 is on record?
A: 84 µM

Q: For CCCC(CCC)NC(=O)N[C@H](C(=O)N[C@@H](CC(=O)N1CCCC1)C(=O)N[C@H](C(=O)N[C@H](CO)CC(C)(C)C)C1(C(=O)O)CCCC1)C(C)(C)C(=O)O [Pr2CHNHC(O)-Asp(diMe)-Asp(pyrrolidino)-Asp(cyPn)-γMeLeucinol], which EC50 is on record?
A: 170 µM

Q: With CCCC(CCC)NC(=O)N[C@H](C(=O)N[C@@H](CC(=O)N1CCCC1)C(=O)N[C@H](C(=O)N[C@H](CO)CC(C)(C)C)C1(C(=O)O)CCCC1)C(C)(C)S [Pr2CHNHC(O)-NH-(R)-CH{C(CH3)2SH}CO-Asp(pyrrolidino)-Asp(cyPn)-γMeLeucinol] as the compound, how does the EC50 read?
A: 290 µM

Q: With CCCC(CCC)NC(=O)N[C@H](C(=O)N[C@@H](CC(=O)N1CCCC1)C(=O)N[C@H](C(=O)N[C@H](CO)CC(C)(C)C)C1(C(=O)O)CCCC1)C(C)(C)O [Pr2CHNHC(O)-NH-(S)-CH{C(CH3)2OH}-C(O)-Asp(pyrrolidino)-Asp(cyPn) γMeLeucinol] as the compound, how does the EC50 read?
A: 210 µM

Q: For CCCC(CCC)NC(=O)N[C@H](C(=O)N[C@@H](CC(=O)N1CCCC1)C(=O)N[C@H](C(=O)NCC(C)(C)CC)C1(C(=O)O)CCCC1)C(C)(C)C [Pr2CHNHC(O)-Tbg-Asp(pyrrolidino)-Asp(cyPn)-NHCH2CMe2Et], which EC50 is on record?
A: 106 µM

Q: For CCCC(CCC)NC(=O)N[C@H](C(=O)N[C@@H](CC(=O)N1CCCC1)C(=O)N[C@H](C(=O)NCC(C)(C)C)C1(C(=O)O)CCCC1)C(C)(C)C [Pr2CHNHC(O)-Tbg-Asp(pyrrolidino)-Asp(cyPn)-NHCH2CMe3], which EC50 is on record?
A: 150 µM

Q: With CCCC(CCC)NC(=O)N[C@H](C(=O)N[C@@H](CC(=O)N1CCCC1)C(=O)N[C@H](C(=O)N[C@H](C)C(C)(C)C)C1(C(=O)O)CCCC1)C(C)(C)C [Pr2CHNHC(O)-Tbg-Asp(pyrrolidino)-Asp(cyPn)-NHCH-(R)-CH(Me)CMe3] as the compound, how does the EC50 read?
A: 55 µM

Q: Which EC50 does the source give for CCCC(CCC)NC(=O)N[C@H](C(=O)N[C@@H](CC(=O)N1CCCC1)C(=O)N[C@H](C(=O)N[C@@H](CC(C)(C)C)C(=O)O)C1(C(=O)O)CCCC1)C(C)(C)C [Pr2CHNHC(O)-Tbg-Asp(pyrrolidino)-Asp(cyPn)-γMeLeu-OH] ({X4-CO}-[Tle]D(Pyrrolidide)[Asp(3,3-(CH2)4)][tBuAla]-OH) here?
A: 80 µM

Q: For CCCC(CCC)NC(=O)N[C@H](C(=O)N[C@@H](CC(=O)C1CCC1)C(=O)N[C@H](C(=O)NCC(C)(C)C)C1(C(=O)O)CCCC1)C(C)(C)C [Pr2CHNHC(O)-Tbg-NH-(S)-CH(2-cyclobutyl-2-oxoethyl)C(O)-Asp(cyPn)-NHCH2CMe3], which EC50 is on record?
A: 160 µM

Same assay, conditions: concentration effecting 50% inhibition of virus replication; BHK-21/C13 cells infected with HSV-2 strain HG-52 (0.02 PFU/cell), 29 h incubation, colorimetric (neutral red) viral titration; read-out: EC50

Q: How did the EC50 turn out when CC(C)(C)C[C@H](NC(=O)[C@@H](NC(=O)[C@H](CC(=O)N1CCCC1)NC(=O)[C@@H](NC(=O)NC(C)(C)CC(C)(C)C)C(C)(C)C)C1(C(=O)O)CCCC1)C(=O)O [Me3CCH2CMe2NHC(O)-Tbg-Asp(pyrrolidino)-Asp(cyPn)-γMeLeu-OH] ({X2-CO}-[Tle]D(Pyrrolidide)[Asp(3,3-(CH2)4)][tBuAla]-OH) was run?
A: 110 µM

— patent publication EP0560274B1, “Antiherpes peptide derivatives having a ureido N-terminus” (priority 1992, dated 1993)
